Test results from PMC5831858, “Pharmacological characterisation of CR6086, a potent prostaglandin E2 receptor 4 antagonist, as a new potential disease-modifying anti-rheumatic drug” (Arthritis Research & Therapy, 2018).
Entries after “also recorded” stand apart in the source; their conditions may differ. Marks after values point to notes of the source that are not given here.

Legend:
BZD (central) = test: Benzodiazepine receptor (central) binding; settings: [^3H]flunitrazepam, Rat cerebral cortex
M4 = M4 (Homo sapiens, UniProt P08173); test: Muscarinic acetylcholine receptor M4 binding; settings: [^3H]4-DAMP, Human recombinant CHO cells, read-out: CR6086 Activity at 10µM
VEGF gene expression = VEGF gene expression in THP-1 cells differentiated to macrophages; format: cell-based; settings: Homo sapiens, LPS 10 ng/ml + PGE2 10 nM, read-out: IC50 transcription of VEGF
Experimental: The human monocyte cell line THP-1 was obtained from the ATCC and was grown according to the instructions provided. THP-1 monocytic cells were differentiated to macrophages with 100 nM phorbol 12-myristate 13-acetate (PMA) for 4 days. Macrophages were then stimulated with lipopolysaccharide (LPS) 10 ng/ml and PGE2 10 nM for 3 or 24 h. Total RNA was purified using the ABI Prism 6100 Nucleic Acid PrepStation (Applied Biosystems, Foster City, CA, USA) and retrotranscribed using the High-Capacity cDNA Reverse Transcription Kit (Thermo Fisher Scientific). RT-PCR analysis was performed using the Applied Biosystems 7500 Fast Real-Time PCR System using specific TaqMan assays (number Hs00174131_m1 for IL-6, number Hs00900054_m1 for vascular endothelial growth factor A [VEGFA]; Thermo Fisher Scientific) and, as an endogenous control, the 18S Pre-Developed TaqMan® Assay (Thermo Fisher Scientific). The data analysis, with normalisation on 18S amplified values, was done following Thermo Fisher Scientific’s specific instructions for gene expression relative quantification. All individual data are the result of at least three different analyses for each sample.

[1] = system: arthritic rats (collagen-induced arthritis model); test: Collagen-induced arthritis in rats: clinical score, oedema, histology; format: in vivo, rat
Experimental: Male Lewis rats were immunised by intradermal injection at the base of the tail with an emulsion containing 150 μg of bovine collagen type II (bCII) in complete Freund’s adjuvant (CFA) or received an injection with incomplete Freund’s adjuvant (sham group). Three weeks after the first immunisation, animals were boosted with the same procedure. Three days after booster injection, arthritis had developed in all animals but the sham group. Oedema was assessed via plethysmometer (Ugo Basile, Varese, Italy), and the animals were then randomised to treatment groups. Oedema measurement was performed again after 7 and 14 days of treatment. Animals were blindly scored by two different investigators for clinical signs of arthritis (redness, swelling, pain of hind limb joints) as follows: 0 = normal; 1 = mild but definite redness and swelling of the ankle or wrist or individual digits, regardless of the number of affected digits; 2 = moderate redness and swelling of ankle or wrist; 3 = severe redness and swelling of the entire paw including digits; and 4 = maximally inflamed limb with involvement of multiple joints. The mean of the scores assigned by the investigators was calculated.
Three different experiments in rat CIA are reported: a dose-response study, as well as two comparative studies vs the COX-2 inhibitor rofecoxib and the Janus kinase (JAK) inhibitor tofacitinib, respectively.
Briefly, the paws were fixed in 10% neutral buffered formalin (Bio-Optica, Milan, Italy) and subsequently decalcified in EDTA for 4 weeks. Samples were dehydrated in an ethanol series and embedded in paraffin. At least three non-consecutive sections for each paw were blindly scored at the level of the tarsus, metatarsus and calcaneus for the following histological features: synovial oedema, pannus, synovial inflammatory cell infiltrate, cartilage damage, osteolysis and woven bone. Based on these histological features, a synovial score (synovial oedema, plus synovial inflammatory cell infiltrate, plus pannus), a bone score (woven bone plus osteolysis) and a total score were calculated. Two independent pathologists performed histopathology on blinded slides. The data of right and left hind limbs were summed for each rat.

[2] = system: arthritic mice (collagen-induced arthritis model); test: FACS analysis of cell populations in the joint, CIA mice; format: in vivo, mouse; settings: CR6086 60 mg/kg, naproxen 60 mg/kg, etanercept 10 mg/kg, mean ± SEM
Experimental: In a first study, mice were randomised into the following treatment groups: vehicle, 30 mg/kg CR6086, 60 mg/kg CR6086, 60 mg/kg naproxen and 10 mg/kg etanercept. Animals received the test drugs for 10 days. CR6086 and naproxen were administered orally once daily, whereas etanercept was administered intraperitoneally every other day. Animals treated with vehicle, 60 mg/kg CR6086, naproxen and etanercept were additionally analysed for the proportion of populations of Th17 cells, Th1 cells, regulatory T cells, B cells, macrophages, neutrophils and dendritic cells by fluorescence-activated cell sorting (FACS) after collection of blood, draining lymph nodes and joints.

human EP4 receptor = biological target: T1, human EP4 receptor (Homo sapiens, UniProt P35408); test: AlphaScreen cAMP functional assay, PGE2-stimulated HEK293 membranes; format: biochemical
T1 construct: expressed in transfected cells
Experimental: In studies of CR6086 as a functional receptor antagonist, we took advantage of the evidence that activated EP4 receptors couple with Gs proteins to stimulate adenylyl cyclase and increase cyclic adenosine monophosphate (cAMP) cellular levels. Cell membranes prepared from the HEK293 cell line were suspended in 1 ml of stimulation buffer (Hanks’ balanced salt solution 1× + BSA 0.1% + 3-isobutyl-1-methylxanthine 0.5 mM + HEPES 5 mM + MgCl2 10 mM + guanosine triphosphate 1 nM + guanosine diphosphate 10 μM + adenosine triphosphate 100 μM, pH 7.4). The AlphaScreen cAMP functional assay (PerkinElmer) was used according to the manufacturer’s instructions. Because AlphaScreen beads are light-sensitive, the cAMP assay was performed under subdued laboratory lighting, and any incubation involving the beads was carried out in the dark. The assay is based on the competition between endogenous cAMP and exogenously added biotinylated cAMP. The capture of cAMP is achieved by using a specific antibody conjugated to […]. Cell membranes were dispensed into white 384-well microplates at a final concentration of 1 μg per well. […] After 1 h of incubation, the plate was read using the EnVision platform (PerkinElmer) to determine the cAMP level (excitation 680 nm, emission 520 or 620 nm). […]

σ (non-selective) = test: σ receptor (non-selective) binding; settings: [^3H]DTG, Rat cerebral cortex

T1 sequence (P35408 whole entry): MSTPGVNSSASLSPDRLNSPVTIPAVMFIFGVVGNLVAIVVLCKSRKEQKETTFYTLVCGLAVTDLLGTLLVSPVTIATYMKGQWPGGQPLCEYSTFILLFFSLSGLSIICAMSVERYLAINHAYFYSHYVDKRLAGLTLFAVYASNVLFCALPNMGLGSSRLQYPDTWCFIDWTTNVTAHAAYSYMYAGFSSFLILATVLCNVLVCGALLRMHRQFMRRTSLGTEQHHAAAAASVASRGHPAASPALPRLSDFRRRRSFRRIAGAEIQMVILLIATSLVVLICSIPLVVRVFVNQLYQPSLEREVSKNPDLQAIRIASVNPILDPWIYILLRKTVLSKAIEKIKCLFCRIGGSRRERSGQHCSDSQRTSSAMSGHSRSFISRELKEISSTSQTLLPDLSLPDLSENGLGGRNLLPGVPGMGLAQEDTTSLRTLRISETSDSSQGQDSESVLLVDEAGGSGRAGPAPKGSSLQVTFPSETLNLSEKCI
Chain of M4 (P08173 whole entry): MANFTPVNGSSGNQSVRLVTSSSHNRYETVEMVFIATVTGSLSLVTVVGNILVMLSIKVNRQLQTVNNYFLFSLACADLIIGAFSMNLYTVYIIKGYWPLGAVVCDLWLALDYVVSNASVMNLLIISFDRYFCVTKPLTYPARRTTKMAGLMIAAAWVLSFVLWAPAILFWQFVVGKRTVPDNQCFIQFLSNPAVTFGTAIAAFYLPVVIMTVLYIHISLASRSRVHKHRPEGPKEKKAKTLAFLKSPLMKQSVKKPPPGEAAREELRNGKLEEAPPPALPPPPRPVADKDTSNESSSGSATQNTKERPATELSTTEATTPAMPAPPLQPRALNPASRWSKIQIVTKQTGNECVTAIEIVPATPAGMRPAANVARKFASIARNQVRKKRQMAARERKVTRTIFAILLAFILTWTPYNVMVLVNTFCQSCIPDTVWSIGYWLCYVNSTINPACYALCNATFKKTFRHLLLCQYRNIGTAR

SMILES: O=C([O-])c1ccc(C2(NC(=O)[C@H]3CC4(CCN3Cc3ccc(C(F)(F)F)cc3)CC4)CC2)cc1.[Na+] [CR6086, Sodium (R)-4-(1-(6-(4-(trifluoromethyl)benzyl)-6-azaspiro[2.5]octane-5-carboxamido)cyclopropyl)benzoate]
- CR6086 Activity at 10µM (BZD (central)): IN (IN = < 20% displacement or inhibition (all tables))
- inhibition at 10 µM (M4): < 20%
- IC50 (VEGF gene expression): 25 nM
- effect on structural and inflammatory parameters (oedema, histology) ([1]; 15 mg/kg once daily, 14 days): markedly and significantly improved all the structural and inflammatory parameters
- effect on arthritis clinical score and oedema ([1]; 1-10 mg/kg oral daily, 1 h and 24 h post-dosing): significantly and dose-dependently reduced
- efficacy relative to active comparators ([1]; CR6086 15 mg/kg once daily, rofecoxib 5–15 mg/kg once daily, tofacitinib 5–25 mg/kg twice daily): more effective than rofecoxib; also recorded: as effective as, but more potent than, tofacitinib
- dose at which efficacy plateaued ([1]; oral, once daily, 14 days): around 10 mg/kg
- minimum effective dose ([1]; oral, once daily, 14 days): 1 mg/kg
- B cells, Percentage of total cells [2]: 6.65 ± 0.72%
- Dendritic cells, Percentage of total cells [2]: 1.72 ± 0.44%
- Macrophages, Percentage of total cells [2]: 11.14 ± 2.93^a %
- Neutrophils, Percentage of total cells [2]: 9.98 ± 2.89^a %
- Th1, Percentage of total cells [2]: 0.14 ± 0.03^b %
- Th17, Percentage of total cells [2]: 0.06 ± 0.01^b %
- Treg, Percentage of total cells [2]: 0.38 ± 0.12%
- IC50 (human EP4 receptor; 3 nM PGE2, HEK293 membranes, read-out: IC50 on PGE2-stimulated cAMP production): 22 nM
- functional behaviour (human EP4 receptor; cAMP functional assays): pure EP4 antagonist
- CR6086 Activity at 10µM (σ (non-selective)): IN (IN = < 20% displacement or inhibition (all tables))
